Several values for one entry are separate records, joined by “and”; a condition that tells them apart may be missing. Equal entries are not always repeated. Entries after “also recorded” stand apart in the source; their conditions may differ.
Assays:
[1] = target: PLG activation by E. faecalis V583 (Homo sapiens, UniProt P00747); format: biochemical
Method: Plasminogen/uPA activity. Plasmin activity assays were performed as previously described with minor modifications, and fluorescence data was analyzed per the manufacturer's instructions (50′). Incubation times were optimized for bacteria at low optical density to limit internal filter effects in fluorescence-based assays. Bacteria (when included) were grown overnight in TY media. OD600 was normalized by dilution to 0.1, equivalent to 8×10^7 CFU/mL. Samples at OD 0.1 were diluted 1:10 in the final reaction through the addition of media and dissolved substrates. Bacteria were incubated with 250 nM human glu-plasminogen (Haematologic technologies) for two hours at 37° C. TXA (Fisher) was added concomitantly with PLG. […] A final concentration of 6 M fluorogenic substrate specific for plasmin (H-D-Val-Leu-Lys-AFC, AnaSpec) was added immediately prior to a kinetic fluorescent read with excitation wavelength 380 nm and emission wavelength 500 nm. Reads were conducted every 15 to 30 seconds over the course of 30 minutes. […] When assays were performed in human plasma, fluorescence was read for 120 minutes total.
Plasmin or uPA activity is expressed as initial reaction velocity calculated from change in fluorescence over time during the initial phase of the reaction, when pseudo-first order kinetics determine the rate due to high substrate concentrations where a linear rise in fluorescence is observed. […]

[2] = test system: type IV collagen degradation by collagenolytic E. faecalis E44; test: Collagen degradation by E. faecalis E44 with PLG, uPA and MMP9; format: biochemical, Enterococcus faecalis; details: fluorescently tagged type IV collagen
Method: (§1) Collagen degradation. Assays were performed per the manufacturer's instructions as previously described with slight modifications (51′). Bacteria were grown overnight in TY. Optical density was normalized to 0.1 through dilution. […] Total reaction volume was 200 L. The incubation proceeded at 37° C. for 5 hours to allow for bacterial attachment to collagen and PLG binding. uPA was added and the incubation proceeded for an additional hour. Change in fluorescence over time at 480/520 nm was determined kinetically over the initial 30 minutes of the reaction.
The role of activated plasminogen (PLG) in anastomotic leak. […] Co-incubation of E44 with murine macrophages ([…]) was performed for studies involving conditioned media. Twenty-week-old male C57BL/6 mice underwent the validated model of E44-induced AL that includes preoperative antibiotics to defaunate the colon, surgical transection and anastomosis of the colon and introduction of E44 in 10% glycerol to the surgical site via rectal enema on postoperative day 1. […] Anastomotic healing was assessed blindly using a validated anastomotic healing score (AHS): 0=uncomplicated healing, 1=flimsy adhesions, 2=dense adhesions, 3=abscess, and 4=gross anastomotic disruption. AL was defined as AHS 3 or above.

[3] = test system: type IV collagen degradation by V583; test: Type IV collagen degradation by E. faecalis V583 with PLG and uPA; format: biochemical, Enterococcus faecalis
Method: as §1

RAW macrophages = test: Collagen degradation by RAW macrophages given RAW/E44s conditioned media; format: cell-based, murine; details: TXA 10 mM, PLG 250 nm, MMP9 1 nM, 4 hours
Method: FIG. 16. […] (A), E. faecalis E44 was grown in TY media overnight, and cell-free conditioned media (E44s) was applied to RAW macrophages for 4 hours. PLG, 250 nm, was included in the reaction. […] PLG activation was measured by fluorogenic substrate cleavage. “RAW” column is naïve RAW. *p<0.05, n=6/group. (B), Conditioned media after co-interaction of macrophages with E. faecalis E44 (named RAW/E44s) was applied to naïve RAW macrophages for 4 hours. PLG, 250 nm, and MMP9, 1 nM, were in all reactions. […] “RAW+RAWs” column is naïve macrophages incubated with conditioned media of RAW macrophages (no E. faecalis E44). *p<0.05, n=6/group.
It was then tested whether macrophage collagen degradation activity is enhanced by stimulation with E. faecalis. Conditions from the above experiment (RAW/E44 s) with naïve RAW macrophages were used. PLG and MMP9 were included in the reaction. Degradation of collagen was enhanced by secreted factors produced during the co-interaction of RAW and E44s. […] Finally, to investigate the mechanism of PLG activation by E. faecalis, a parent collagenolytic strain isolated from a patient with AL (V583) was used, along with its mutant derivative (DDGelE/Spr) with secretory collagenolytic factors serine protease (Spr) and gelatinase (GelE) genetically removed. […]

[4] = test system: RAW macrophages stimulated by V583; test: Gelatin degradation by V583-stimulated RAW macrophages; format: cell-based, murine; details: 10 mM TXA
[5] = target: PLG with uPA and pro-MMP9 (Homo sapiens, UniProt P00747); test: Collagen/gelatin degradation by PLG, uPA and pro-MMP9 in a sterile system; format: biochemical
Method: Collagen degradation. Assays were performed per the manufacturer's instructions as previously described with slight modifications (51′). Bacteria were grown overnight in TY. Optical density was normalized to 0.1 through dilution. Bacteria were then incubated with fluorescein-labeled type I collagen, type IV collagen, or gelatin according to the manufacturer's instructions (ThermoFisher), human PLG at 250 nM and TXA. Total reaction volume was 200 L. The incubation proceeded at 37° C. for 5 hours to allow for bacterial attachment to collagen and PLG binding. uPA was added and the incubation proceeded for an additional hour. Change in fluorescence over time at 480/520 nm was determined kinetically over the initial 30 minutes of the reaction.

[6] = test system: polymicrobial communities cultured from the postoperative mouse colon; test: Plasmin activity assay of polymicrobial communities from postoperative mouse colon; format: biochemical; details: 10 mM TXA, exogenous PLG and uPA
Method: Polymicrobial communities collected from homogenized tissue and luminal contents were cultured aerobically in nonspecific media and underwent plasmin activity assays in the presence of human PLG and uPA. […] (*p<0.05, ANCOVA). Error bars indicate means±SD. All data are representative of three separate experiments, each run in triplicate.
Plasminogen/uPA activity. Plasmin activity assays were performed as previously described with minor modifications, and fluorescence data was analyzed per the manufacturer's instructions (50′). Incubation times were optimized for bacteria at low optical density to limit internal filter effects in fluorescence-based assays. Bacteria (when included) were grown overnight in TY media. […] A final concentration of 6 M fluorogenic substrate specific for plasmin (H-D-Val-Leu-Lys-AFC, AnaSpec) was added immediately prior to a kinetic fluorescent read with excitation wavelength 380 nm and emission wavelength 500 nm. Reads were conducted every 15 to 30 seconds over the course of 30 minutes. […] When assays were performed in human plasma, fluorescence was read for 120 minutes total.
Plasmin activity assays were measured in polymicrobial communities cultured aerobically from homogenized luminal contents or tissue following anastomotic surgery without antibiotics and without introduction of a leak-inducing pathogen (e.g., E. faecalis, P. aeruginosa, S. marcescens). […]

[7] = test system: P. aeruginosa-induced anastomotic leak; test: Mouse model of P. aeruginosa-induced anastomotic leak; format: in vivo, mice
Method: Mouse model of AL. The experiments disclosed herein used the validated model of pathogen-mediated AL in mice (8′). Ten- to 12-week-old C57BL/6 mice (Charles River) were provided standard chow and tap water ad libidum at all times. When indicated, mice received oral clindamycin (100 mg/kg gavage) and subcutaneous cefoxitin (40 mg/kg) the day prior to, and the day of, surgery. Mice underwent general anesthesia with intraperitoneal ketamine and xylocaine and laparotomy followed by transection of the colon at the colo-rectal junction followed by a primary anastomosis created with interrupted 8-0 prolene suture prior to abdominal closure with 4-0 vicryl suture in two layers. Rectal enemas containing pathogen, either E. faecalis or P. aeruginosa at an OD600 of 0.1 in 10% glycerol, were administered in 100 L enemas. E. faecalis was introduced on POD 1, 2, and 3, while P. aeruginosa was introduced only on POD 1. […] Rectal delivery with a gavage needle ensured local administration of pathogen and study drugs to the surgical site. Rules for stopping the experiment were enacted if mice appeared moribund or in any distress whereby they were sacrificed immediately. There were three deaths prior to planned sacrifice, all determined secondary to feculent peritonitis due to AL. Both the surgeon and the investigator performing analysis of healing were blind to the treatment group. […]

[8] = target: FITC-PLG at the anastomosis (Homo sapiens, UniProt P00747); test: In vivo deposition of FITC-PLG at surgical anastomoses; set-up: species or system mice; details: TXA enema one hour prior to sacrifice, 48 and 72 hours post-operative
Method: Mice underwent anastomosis without exposure to antibiotics or exogenous pathogen followed by intraperitoneal injection with FITC-PLG and either TXA or vehicle control enema one hour prior to sacrifice. Three animals per treatment group were sacrificed at various time points. […] Either TXA or water vehicle enema was administered along with systemic FITC-PLG injection one hour prior to sacrifice. […] Total FITC-PLG fluorescent signal was quantified in all mice as integrated density/area. […] A segment of anastomotic tissue collected from a mouse that received no enemas at 24 hours post-operative was observed. FITC-PLG fluorescence intensity is spatially quantified across the length of the tissue.
Mean FITC staining intensity was quantified as integrated density/area at the anastomotic sites of three mice per treatment group at the 48- and 72-hour time points.

[9] = test system: E. faecalis V583-induced AL
Method: Mouse model of AL. The experiments disclosed herein used the validated model of pathogen-mediated AL in mice (8′). Ten- to 12-week-old C57BL/6 mice (Charles River) were provided standard chow and tap water ad libidum at all times. When indicated, mice received oral clindamycin (100 mg/kg gavage) and subcutaneous cefoxitin (40 mg/kg) the day prior to, and the day of, surgery. Mice underwent general anesthesia with intraperitoneal ketamine and xylocaine and laparotomy followed by transection of the colon at the colo-rectal junction followed by a primary anastomosis created with interrupted 8-0 prolene suture prior to abdominal closure with 4-0 vicryl suture in two layers. Rectal enemas containing pathogen, either E. faecalis or P. aeruginosa at an OD600 of 0.1 in 10% glycerol, were administered in 100 L enemas. E. faecalis was introduced on POD 1, 2, and 3, while P. aeruginosa was introduced only on POD 1. Mice received 100 L rectal enemas containing 50 mM TXA or vehicle control on postoperative days 1, 2, and 3. Rectal delivery with a gavage needle ensured local administration of pathogen and study drugs to the surgical site. […] Both the surgeon and the investigator performing analysis of healing were blind to the treatment group. […]

Sequence of PLG activation by E. faecalis V583 (P00747 20-810): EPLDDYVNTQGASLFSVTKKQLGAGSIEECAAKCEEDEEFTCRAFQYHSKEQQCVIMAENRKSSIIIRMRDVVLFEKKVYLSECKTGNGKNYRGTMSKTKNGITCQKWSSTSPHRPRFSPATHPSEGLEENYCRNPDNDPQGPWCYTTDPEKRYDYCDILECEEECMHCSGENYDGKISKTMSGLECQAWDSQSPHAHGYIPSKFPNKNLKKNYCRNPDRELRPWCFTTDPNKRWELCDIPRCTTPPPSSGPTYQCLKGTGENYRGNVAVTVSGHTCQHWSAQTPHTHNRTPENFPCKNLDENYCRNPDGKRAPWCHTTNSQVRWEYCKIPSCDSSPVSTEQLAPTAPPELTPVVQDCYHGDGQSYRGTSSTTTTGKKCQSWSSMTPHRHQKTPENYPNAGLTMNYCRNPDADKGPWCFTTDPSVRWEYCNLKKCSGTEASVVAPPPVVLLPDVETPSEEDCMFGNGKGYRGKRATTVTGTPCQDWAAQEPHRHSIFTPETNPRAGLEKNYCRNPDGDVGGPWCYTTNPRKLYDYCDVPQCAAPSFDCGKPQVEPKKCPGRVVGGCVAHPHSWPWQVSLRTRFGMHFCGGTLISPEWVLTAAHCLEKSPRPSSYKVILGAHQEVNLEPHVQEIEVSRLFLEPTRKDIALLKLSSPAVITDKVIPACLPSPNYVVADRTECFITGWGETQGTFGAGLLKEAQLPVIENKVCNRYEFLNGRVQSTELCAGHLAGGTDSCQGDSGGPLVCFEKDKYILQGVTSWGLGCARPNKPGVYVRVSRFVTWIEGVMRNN
Sequence of FITC-PLG at the anastomosis (P00747 20-810 limits assumed): as the sequence (P00747 20-810) above
Sequence of PLG with uPA and pro-MMP9 (P00747 20-810 limits assumed): as the sequence (P00747 20-810) above

## NC[C@H]1CC[C@H](C(=O)O)CC1 [TXA, tranexamic acid]
[1]; in vitro, concentrations lower than circulating concentration after PO dosing (FIG. 23)
  reduction in PLG activation by E. faecalis: 20%
[1]; plasmin activity assay, PLG 250 nM, uPA
  PLG activation by V583 in the presence of uPA: inhibited PLG activation by V583 in a concentration-dependent manner
[2]
  collagen degradation by E44 with PLG, uPA and MMP9: inhibited by TXA in a concentration-dependent fashion; also recorded: collagen degradation was inhibited
[2]; listed as tranexamic acid
  collagen degradation by E44 with PLG, uPA and MMP9: inhibited in a concentration-dependent manner
[3]; V583, PLG, uPA and TXA
  type IV collagen degradation by V583 with PLG and uPA: concentration-dependent inhibition
[3]; same concentration levels as for PLG activation (FIG. 23)
  reduction of bacterial collagen degradation: over 80%
RAW macrophages
  collagen degradation by macrophages given RAW/E44s conditioned media: attenuated
[4]; PLG, uPA, 6 hours, no added pro-MMP9
  gelatin degradation in V583-stimulated macrophages: significantly inhibited gelatin degradation
[4]; with added pro-MMP9
  gelatin degradation in V583-stimulated macrophages: significantly diminished
[5]
  gelatin / type IV collagen degrading activity of PLG with uPA and pro-MMP9: inhibited in a concentration-dependent manner
[6]
  plasmin-activating activity of polymicrobial communities: significantly inhibited
[7]; 5 mice per group, enema POD 1, 2, 3
  clinical / gross leak: None of the mice
[7]; 100 μL enema POD 1, 2, 3 (50 mM TXA in water or PBS), POD 8, water 3.8±0.4
  anastomotic healing score (AHS): 1.6±0.5 and 1.6+/−0.6
[8]
  FITC-PLG positivity at the anastomosis (integrated density/area): significantly decreased the amount of FITC-PLG positivity at the anastomosis at both time points
[9]; 100 μL enema of 50 mM TXA POD 1, 2, 3, POD 8, vehicle 2.7±0.2
  mean anastomotic healing score (AHS): 1.5±0.2
[9]; TXA enema versus vehicle with AL
  trichrome staining of POD8 anastomotic tissue: increased quantity and organization of fibroblastic products in the submucosa

Reference: patent publication US12383579B2, “Materials and methods of using an inhibitor of plasminogen activation to treat anastomotic leak” (THE UNIVERSITY OF CHICAGO, priority 2018, dated 2025)
